Tests used:
[1] = tested on: rat model of lithium-pilocarpine-induced epilepsy; assay: Rat model of lithium-pilocarpine-induced epilepsy (SE), highest seizure grade score; type: in vivo, Sprague Dawley (SD) rats; conditions: 300 mg/kg oral gavage, 1 h after SE onset; acute phase; Racine 0-6
Procedure: (1) Experimental Animals: SPF Adult Male Sprague Dawley (SD) Rats, with a Weight of 200-250 g.
Methylscopolamine bromide, lithium chloride, and pilocarpine were weighed, and experimental drugs were dissolved to working concentrations (100 mg/mL of lithium chloride solution, 1 mg/mLof methylscopolamine bromide solution, and 20 mg/mL of pilocarpine solution) with 0.9% saline. Rats were injected intraperitoneally with lithium chloride (a dose of 127 mg/kg), and 18-20 h later, scopolamine methylbromide (a dose of 1 mg/kg) was injected intraperitoneally. […] Thereafter, an additional dose of 10 mg/kg pilocarpine was injected intraperitoneally every 30 min until the onset of a grade IV or higher status epilepticus (SE)-like seizure without significant intermittent intervals, with a maximum dose of 60 mg/kg.
Model inclusion criterion: experimental animals presenting continuous seizures of grade IV or higher for 1 h was judged as successful modeling.
The rats with successful modeling were randomly divided into three groups, namely a model group, a CTMB group, and a sodium valproate (VPA) group. […]
Referring to the grading scale of Racine scores, the seizure symptoms of each group of rats after the drug intervention were observed, and the seizure grades of each group of rats in the acute phase were recorded. […]

[2] = tested on: neurons of substantia nigra region and striatum of PD mice; assay: HE staining of substantia nigra and striatum of PD mice; type: in vivo, C57 mice; conditions: Group L, levodopa: benserazide hydrochloride=4:1, 12 mg/kg ip, 4 weeks; compared with model group; FIG. 5-7
Procedure: (§1) The mice were randomly divided into a sham operation group (group S, given a blank emulsion with a volume equal to that of the administered group), a model group (group M, given a blank emulsion with a volume equal to that of the administered group), a CTMB group (20 mg/kg, group D), and a levodopa group (levodopa: benserazide hydrochloride=4:1, 12 mg/kg, group L), each group included 10-12 mice, and all of them were administered intraperitoneally.
(§2) After completing the evaluation of motor function after 4 weeks of drug administration, the mice were deeply anesthetized, perfused with 20 mL of saline and 20 mL of 4% paraformaldehyde via the heart, and the brains were rapidly severed and extracted from the head, which were then preserved and fixed in 4% paraformaldehyde for 72 h after removal, and then embedded with paraffin to prepare the slices with a thickness of 4 μm for subsequent pathological and histological studies.
Hematoxylin-eosin (HE) staining may be used to observe changes in the pathological condition of brain tissue. […]

[3] = tested on: Parkinson's disease (PD) mice, 6-OHDA method; assay: 6-OHDA Parkinson's disease mice, rod-climbing experiment; type: in vivo, C57 mice; conditions: Group L, levodopa: benserazide hydrochloride=4:1, 12 mg/kg ip
Procedure: as §1
(§3) Preoperatively, mice were fasted for 12 h, and mice were anesthetized with 4% isoflurane induction and maintained with 1.5% isoflurane. The mice were subsequently immobilized on a brain stereotaxic apparatus. The bregma and lambda points were exposed by gently wiping the cranial surface with a cotton swab after cutting the scalp. The stereotaxic apparatus was adjusted to align the heights of the bregma and lambda points, thereby leveling the skull. The bregma point was designated as the origin, the coordinates where the injection site was located were located, and the drill was used to drill a small hole in the skull above the injection site.
(§4) 6-OHDA (12.5 μg/μL) was injected into the striatum region (AP+0.5 mm; ML+2.00 mm; DV-3.00 mm and-2.00 mm) of the mice, and 1 μL 6-OHDA was injected into each of the two points at a rate of 0.5 μL/min. The needle was left in place for 3 min after the injection was completed, and then the injection needle was lifted, and the scalp of the mice was sutured and disinfected. The sham operation group was injected with an equal volume of saline containing 0.02% ascorbic acid, and other operations were performed as above. After the procedure, the mice were placed in the cage at an appropriate temperature. After awakening from anesthesia, the mice were kept normally.
The rod-climbing experiment: the rod-climbing experiment was mainly used to test the limb movement ability of mice and to assess the symptoms of motor delay. This experiment evaluated the ability of mice to grasp and maneuver on a pole to descend to their home cage. A cork ball was fixed to an iron pole with a diameter of 1 cm and a length of 65 cm. The head of the mice was put down on the top of the pole, and the mice usually naturally descended down along the pole to return to their cage. The time for the mice to descend to the bottom was recorded. Results were averaged over 3 consecutive measurements.
(§5) The motor function of the mice was comprehensively assessed using the rod-climbing experiment and the hanging experiment at 1, 2, 3, and 4 weeks after drug administration.

[4] = tested on: Tyrosine hydroxylase (TH) protein expression; assay: TH protein expression by immunohistochemistry in substantia nigra of PD mice; type: in vivo, C57 mice; conditions: Group L, levodopa: benserazide hydrochloride=4:1, 12 mg/kg ip, after 4 weeks of administration
Procedure: as §1, §2
Tyrosine hydroxylase (TH) protein expression was detected by immunohistochemistry. […]

[5] = tested on: neurons in the substantia nigra region of the midbrain of PD mice; assay: Niehl's staining, number of neuronal Niehl's bodies in substantia nigra of PD mice; type: in vivo, C57 mice; conditions: Group L, levodopa: benserazide hydrochloride=4:1, 12 mg/kg ip, after 4 weeks of administration
Procedure: as §1, §2
Niehl's staining was used to identify Niehl's bodies in neuronal cells.

[6] = tested on: Parkinson's disease (PD) mice, 6-OHDA method; assay: 6-OHDA Parkinson's disease mice, hanging experiment; type: in vivo, C57 mice; conditions: Group L, levodopa: benserazide hydrochloride=4:1, 12 mg/kg ip, cut-off 60 s
Procedure: as §1, §3, §4
The hanging experiment: normal mice have climbing activity, which requires proper grip strength and motor coordination, so the hanging experiment may be used to examine motor dysfunction in mice. A metal rod with a diameter of 1.5 mm was placed horizontally on top of the box, and a distance from the metal rod to the bottom of the box was 30 cm. […] Measurement was performed twice, with an interval of 1 min or more between each test, and the results were averaged over the two times.
as §5

CCCC(CCC)C(=O)[O-].[Na+] [VPA, sodium valproate, reference compound]
Seizure grade score (highest, SE model rats) [1]: 5.00 ± 0.00

N[C@@H](Cc1ccc(O)c(O)c1)C(=O)O [levodopa, Levodopa, reference compound]
degree of pathological damage to the substantia nigra region and striatum [2]: reduced
Rod-climbing time, 1 week of administration [3]: 6.39 ± 1.18 ^ s
Rod-climbing time, 2 weeks of administration [3]: 5.79 ± 0.49 s
Rod-climbing time, 3 weeks of administration [3]: 5.34 ± 0.84 s
Rod-climbing time, 4 weeks of administration [3]: 4.93 ± 0.59 s
Rod-climbing time, Before administration ([3]; baseline 2 weeks after 6-OHDA): 9.63 ± 2.53 s
TH-positive neurons (a percentage of TH-positive neurons to uninjured side, %) [4]: 18.8 ± 7.6 %
Number of Niehl's bodies [5]: 57.8 ± 6.5
Hanging time, Before administration ([6]; baseline 2 weeks after 6-OHDA): 43.7 ± 19.5 s
Hanging time, 1 week of administration [6]: 54.4 ± 8.0 s
Hanging time, 2 weeks of administration [6]: 47.0 ± 16.2 s
Hanging time, 3 weeks of administration [6]: 48.2 ± 18.1 s
Hanging time, 4 weeks of administration [6]: 50.3 ± 12.9 s
